Experimental data from ChEMBL document CHEMBL1201862, “PubChem BioAssay data set” (2004).
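The compound was tested at five concentrations on cells cultured in 96-well plates, with a 48-hour exposure period. Abbreviation: GI50, concentration required for 50% inhibition of growth.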 Calls of active or inactive are those of the source. Cut-off read from the data, not from the text of the source: active = GI50 up to about 1.1 µM and inactive = higher.

Columns and labels:
Test in all cases: NCI tumour cell line growth inhibition, 48 h
[1] = tested on: K562
[2] = tested on: T47D
[3] = tested on: SW-620
[4] = tested on: HCC 2998
[5] = tested on: HOP-92
[6] = tested on: MDA-MB-435
[7] = tested on: SK-MEL-5
[8] = tested on: SN12C
[9] = tested on: OVCAR-5
[10] = tested on: DU-145
[11] = tested on: BT-549
[12] = tested on: SF-295
[13] = tested on: IGROV-1
[14] = tested on: Malme-3M
[15] = tested on: KM12
[16] = tested on: TK-10
[17] = tested on: NCI-H460
[18] = tested on: CCRF-CEM
[19] = tested on: UACC-257
[20] = tested on: SR

Measured: GI50

O=C(O)CC(NC(=O)CP(=O)(O)O)C(=O)O (stereo not given)
inactive: [1] 94.8 µM | [2] 1290 µM | [3] 285 µM | [4] 7930 µM | [5] 424 µM | [6] 37.6 µM | [7] 101 µM | [8] 724 µM | [9] 6120 µM | [10] 933 µM | [11] 3210 µM | [12] 44.9 µM | [13] 335 µM | [14] 2360 µM | [15] 149 µM | [16] 1420 µM | [17] 25.4 µM | [18] 682 µM

O=C(O)c1cncc(C(=O)O)c1
inactive: [1] > 100 µM | [2] > 100 µM | [3] > 100 µM | [6] > 100 µM | [7] > 100 µM | [8] > 100 µM | [9] > 100 µM | [10] > 100 µM | [11] > 100 µM | [19] > 100 µM | [12] > 100 µM | [13] > 100 µM | [14] > 100 µM | [15] > 100 µM | [16] > 100 µM | [17] > 100 µM | [18] > 100 µM

O=[N+]([O-])/C(C(Cl)=C(Cl)Cl)=C(\Nc1cccc2ccccc12)n1nnc2ccccc21
inactive: [2] > 100 µM | [3] 58.5 µM | [4] > 100 µM | [6] 53.7 µM | [8] > 100 µM | [9] 42 µM | [10] > 100 µM | [11] 21.7 µM | [19] > 100 µM | [12] 32.1 µM | [14] 68.5 µM | [15] 30.7 µM | [17] 63.4 µM | [18] 28.9 µM

COc1cc2cc(C(=O)N3CC(CCl)c4ccc([N+](=O)[O-])cc43)[nH]c2c(OC)c1OC (stereo not given)
inactive: [1] > 100 µM | [2] > 100 µM | [3] > 100 µM | [4] > 100 µM | [5] > 100 µM | [6] > 100 µM | [7] > 100 µM | [8] > 100 µM | [9] > 100 µM | [10] > 100 µM | [11] > 100 µM | [19] > 100 µM | [12] > 100 µM | [13] > 100 µM | [14] > 100 µM | [15] > 100 µM | [16] > 100 µM | [18] > 100 µM

COc1ccc2c(O)c(Oc3ccc(Cl)cc3)c(=O)oc2c1
inactive: [1] > 100 µM | [2] 55.6 µM | [3] > 100 µM | [4] 75.7 µM | [5] 34.5 µM | [7] > 100 µM | [8] > 100 µM | [9] > 100 µM | [10] 90.4 µM | [11] 36.9 µM | [19] > 100 µM | [12] > 100 µM | [13] 60 µM | [20] > 100 µM | [14] 60.7 µM | [15] > 100 µM | [16] 78.3 µM | [17] > 100 µM | [18] > 100 µM

CC(NNC(=O)c1ccncc1)c1ccc(F)cc1 (stereo not given)
inactive: [1] > 100 µM | [2] > 100 µM | [3] > 100 µM | [4] > 100 µM | [5] > 100 µM | [6] > 100 µM | [7] > 100 µM | [8] > 100 µM | [9] > 100 µM | [10] > 100 µM | [11] > 100 µM | [19] > 100 µM | [12] > 100 µM | [13] > 100 µM | [14] > 100 µM | [15] > 100 µM | [16] > 100 µM | [17] > 100 µM | [18] > 100 µM
